Consider 24 compounds from ChEMBL document CHEMBL4765340, “Novel potent antiplatelet thrombotic agent derived from biguanide for ischemic stroke” (Eur J Med Chem, 2020).

For one data set, the system named is Mus musculus. The data set is described as follows: Antithrombotic activity in collagen-epinephrine induced pulmonary thromboembolism mouse model assessed as protection rate at 200 mg/kg, ig twice a day for 7 days followed by administered collagen-epinephrine relative to control. The class given is functional. Particulars: time 7 day.
Data set [1] in a line: Inhibition of thrombin-induced platelet aggregation in mouse platelet isolated from C57BL/6J mouse treated at 200 mg/kg, ig twice a day for 7 days by lumi-aggregometer. The class given is functional. To be noted: po, 168 h, time 7 day.
Data set [2] can be described thus: Apparent clearance during terminal phase in Sprague-Dawley rat at 200 mg/kg, po measured by HPLC-MS/MS analysis. The class given is ADME, organism-based. Particulars: in vivo.
Data set [3] can be described thus: Cmax in Sprague-Dawley rat at 200 mg/kg, po compound dissolved in DMSO measured after 2 hr by HPLC-MS/MS analysis. The class given is ADME, organism-based. Also noted: route oral, time 2 hrs, dose 200 mg/kg. Particulars: in vivo.
Data set [4] in a line: Half life in Sprague-Dawley rat at 200 mg/kg, po measured by HPLC-MS/MS analysis. Particulars: in vivo. The class given is ADME, organism-based.
Data set [5] in a line: AUC (0 to infinity) in Sprague-Dawley rat at 200 mg/kg, po measured by HPLC-MS/MS analysis. The class given is ADME, organism-based. To be noted: in vivo. Also noted: time infinity, route oral, dose 200 mg/kg.

For `CN(C)C(=N)NC(=N)NS(=O)(=O)CCC(F)(F)F`, the Activity in the data set with Mus musculus was determined as 20%. In addition, in data set [1], at 200 mg/kg the inhibition in vivo was 24.4%.

Take `CN(C)C(=N)NC(=N)NC(=O)/C=C/C(=O)O`: in the data set on Mus musculus, the Activity turned out to be 20%. Moreover, testing at 200 mg/kg in data set [1] gave an inhibition in vivo of 13.5%.

For the compound `CN(C)C(=N)NC(=N)/N=C/c1ccc(O)cc1`, the Activity with Mus musculus is reported as 10%. At 200 mg/kg the inhibition in vivo in data set [1] was 11.5%.

On to `CN(C)C(=N)NC(=N)N` [METFORMIN], for which the CLz/F in data set [2] came to 42.4 mL/min/kg. In addition, the Cmax (as a rule, the maximum level reached in the sampled fluid or tissue) in data set [3] was determined as 18000 ng/mL. Moreover, in the data set on Mus musculus, the Activity was 30%. In addition, the half-life (commonly the time needed for the level to fall by half in the phase considered) in data set [4] was 3.24 h. Moreover, the area under the curve AUC(0-inf) (usually total exposure, with the tail of the curve extrapolated) in data set [5] came to 78700 ng·h/mL. For the same compound, the inhibition in vivo (usually the change of the read-out against control, counted positive when it falls) at 200 mg/kg in data set [1] is 18.5%.

With `CN(C)C(=N)NC(=N)NC(=O)C(F)(F)F`, in the data set with Mus musculus, the Activity is reported as 30%. The same compound yielded an inhibition in vivo at 200 mg/kg in data set [1] of 16.5%.

Regarding `CN(C)C(=N)NC(=N)NS(=O)(=O)C(F)(F)C(F)(F)C(F)(F)C(F)(F)F`, the Activity in the data set on Mus musculus was 20%. Besides, in data set [1], the inhibition in vivo at 200 mg/kg was 9.2%.

As to `CN(C)C(=N)NC(=N)NS(=O)(=O)C1CCCCC1`, the Activity in the data set on Mus musculus was found to be 30%. The inhibition in vivo at 200 mg/kg in data set [1] stood at 19.5%.

With `CN(C)C(=N)NC(=N)NS(=O)(=O)C(Cl)(Cl)Cl`, the Activity in the data set with Mus musculus is on record as 40%. Moreover, testing at 200 mg/kg in data set [1] gave an inhibition in vivo of 34.9%.

In the case of `CN(C)C(=N)NC(=N)/N=C/c1ccc(N(C)C)cc1`, the Activity with Mus musculus came to 10%. This compound also came in with an inhibition in vivo at 200 mg/kg in data set [1] of 6.2%.

On to `CN(C)C(=N)NC(=N)NS(=O)(=O)CC(F)(F)F`, for which the Activity in the data set on Mus musculus came out at 30%. The compound also displayed an inhibition in vivo at 200 mg/kg in data set [1] of 29.3%.

On to `CN(C)C(=N)NC(=N)/N=C/c1cc(O)c(O)c(O)c1`, for which the Activity in the data set with Mus musculus is given as 0%. The compound further came in with an inhibition in vivo at 200 mg/kg in data set [1] of 7.1%.

In the case of `CN(C)C(=N)NC(=N)NC(=O)c1ccccc1`, the Activity in the data set with Mus musculus is 20%. Moreover, the inhibition in vivo at 200 mg/kg in data set [1] came out at 14.2%.

For `CN(C)C(=N)NC(=N)NC(=O)CCC(=O)O`, the Activity in the data set on Mus musculus is 40%. Further, the inhibition in vivo at 200 mg/kg in data set [1] is 40.4%.

As for `CC(=O)Oc1ccccc1C(=O)O` [ASPIRIN], the Activity with Mus musculus is on record as 50%. In data set [1], this compound gave an inhibition in vivo at 200 mg/kg of 38.8%.

As for `Cc1ccc(S(=O)(=O)NC(=N)NC(=N)N(C)C)cc1`, the Activity with Mus musculus was 30%. For the same compound, the inhibition in vivo at 200 mg/kg in data set [1] was found to be 16.5%.

Consider `Cc1ccc(C(=O)NC(=N)NC(=N)N(C)C)cc1`, for which the Activity with Mus musculus is reported as 20%. Also, the inhibition in vivo at 200 mg/kg in data set [1] worked out at 18.3%.

`CC(C)S(=O)(=O)NC(=N)NC(=N)N(C)C`: the Activity in the data set on Mus musculus turned out to be 40%. This compound had an inhibition in vivo at 200 mg/kg in data set [1] of 28.2%.

Turning to `CN(C)C(=N)NC(=N)NS(=O)(=O)C(F)F`, the Activity in the data set with Mus musculus worked out at 30%. Besides, the inhibition in vivo at 200 mg/kg in data set [1] worked out at 35.5%.

As for `CC(=O)NC(=N)NC(=N)N(C)C`, the Activity with Mus musculus came to 10%. In data set [1], this compound came in with an inhibition in vivo at 200 mg/kg of 15.4%.

On to `CN(C)C(=N)NC(=N)NCc1ccccc1`, for which, in the data set with Mus musculus, the Activity turned out to be 20%. Moreover, the inhibition in vivo at 200 mg/kg in data set [1] came to 12.1%.

For `CCS(=O)(=O)NC(=N)NC(=N)N(C)C`, the Activity with Mus musculus is 20%. The inhibition in vivo at 200 mg/kg in data set [1] came to 34.3%.

With `CN(C)C(=N)NC(=N)/N=C/c1ccc(C#N)cc1`, in the data set with Mus musculus, the Activity stood at 10%. Moreover, in data set [1], the inhibition in vivo at 200 mg/kg was found to be 9.5%.

Turning to `CN(C)C(=N)NC(=N)NS(C)(=O)=O`, in the data set with Mus musculus, the Activity amounted to 50%. In addition, 200 mg/kg produced 47.5% inhibition in vivo in data set [1].

As for `CN(C)C(=N)NC(=N)NC(=O)C1CCCCC1`, the Activity in the data set with Mus musculus was 20%. Also, 200 mg/kg produced 24.1% inhibition in vivo in data set [1].
